Reference: PubChem BioAssay (NCI)
Where “and” joins values, the source holds several entries; their conditions need not be identical. Equal entries are not always repeated.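 48-hour exposure; five concentrations; linearly interpolated endpoints. GI50 marks 50% less growth. TGI: concentration producing complete growth inhibition.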

Legend:
Assay in all cases: NCI-60 cell line screen, 48 h
[1] = tested on: KM20L2 colon
[2] = tested on: K-562 leukemia
[3] = tested on: HOP-18 NSCLC
[4] = tested on: 786-0 renal
[5] = tested on: SNB-19 CNS
[6] = tested on: SK-MEL-28 melanoma
[7] = tested on: U251 CNS
[8] = tested on: BT-549 breast
[9] = tested on: SW-620 colon
[10] = tested on: KM12 colon
[11] = tested on: T-47D breast
[12] = tested on: NCI-H226 lung
[13] = tested on: DLD-1 colon
[14] = tested on: SNB-75 CNS
[15] = tested on: IGROV1 ovarian
[16] = tested on: HT29 colon
[17] = tested on: M19-MEL melanoma
[18] = tested on: SNB-78 CNS
[19] = tested on: SF-268 CNS
[20] = tested on: SN12C renal
[21] = tested on: SF-295 CNS
[22] = tested on: SK-OV-3 ovarian
[23] = tested on: ACHN renal
[24] = tested on: SK-MEL-5 melanoma
[25] = tested on: RXF 393 renal
[26] = tested on: NCI-H460 lung
[27] = tested on: HOP-92 NSCLC
[28] = tested on: OVCAR-3 ovarian
[29] = tested on: A498 renal
[30] = tested on: OVCAR-5 ovarian
[31] = tested on: PC-3 prostate
[32] = tested on: HS 578T breast
[33] = tested on: MDA-N
[34] = tested on: M14 melanoma
[35] = tested on: EKVX NSCLC
[36] = tested on: MCF7 breast
[37] = tested on: OVCAR-4 ovarian
[38] = tested on: NCI-H23 lung
[39] = tested on: HL-60(TB) leukemia
[40] = tested on: CCRF-CEM leukemia
[41] = tested on: SF-539 CNS
[42] = tested on: HCT-116 colon
[43] = tested on: MOLT-4 leukemia
[44] = tested on: MDA-MB-435
[45] = tested on: OVCAR-8 ovarian
[46] = tested on: A549 NSCLC
[47] = tested on: SR leukemia
[48] = tested on: NCI/ADR-RES ovarian
[49] = tested on: HCT-15 colon
[50] = tested on: RPMI-8226 leukemia
[51] = tested on: CAKI-1 renal
[52] = tested on: MDA-MB-231 breast
[53] = tested on: NCI-H522 lung
[54] = tested on: TK-10 renal
[55] = tested on: UO-31 renal
[56] = tested on: HCC-2998 colon
[57] = tested on: UACC-257 melanoma
[58] = tested on: LOX IMVI melanoma
[59] = tested on: UACC-62 melanoma
[60] = tested on: COLO 205 colon
[61] = tested on: SK-MEL-2 melanoma
[62] = tested on: MALME-3M melanoma
[63] = tested on: DU-145 prostate
[64] = tested on: HOP-62 NSCLC

SMILES: Nc1nc(=S)c2ncn(C3CC(O)C(CO)O3)c2[nH]1 (stereo unspecified)
- TGI [1]: 421 µM and 2940 µM
- TGI [2]: 333 µM and 2590 µM
- TGI [3]: > 983 µM and 4020 µM
- TGI [4]: > 2350 µM
- GI50 [5]: 77.3 µM and 753 µM
- TGI [5]: > 5000 µM
- TGI [6]: 594 µM and > 5000 µM
- TGI [7]: 901 µM and > 4730 µM
- TGI [8]: 883 µM and 4760 µM
- TGI [9]: 385 µM and 3540 µM
- TGI [10]: 75 µM and 700 µM
- TGI [11]: 438 µM and > 3110 µM
- TGI [12]: 639 µM and > 5000 µM
- TGI [13]: 340 µM and 1740 µM
- TGI [14]: 377 µM and 3000 µM
- TGI [15]: 521 µM and 2870 µM
- TGI [16]: > 466 µM and 2190 µM
- TGI [17]: > 4680 µM
- TGI [18]: > 5000 µM
- TGI [19]: 555 µM and > 5000 µM
- TGI [20]: 353 µM and 3130 µM
- TGI [21]: 382 µM and 3310 µM

SMILES: CCOc1cc(NC(C)=O)ccc1C(=O)NNC(=O)c1ccccc1OC(C)=O
- TGI [22]: > 100 µM
- TGI [23]: > 100 µM
- TGI [24]: 22.6 µM
- TGI [2]: > 40.3 µM
- TGI [25]: > 30.2 µM
- TGI [26]: 32.9 µM
- TGI [27]: > 100 µM
- TGI [28]: > 100 µM
- TGI [4]: > 90.3 µM
- TGI [29]: 73.8 µM
- TGI [30]: > 89.4 µM
- TGI [31]: > 100 µM
- TGI [32]: > 100 µM
- TGI [33]: > 100 µM
- TGI [5]: > 100 µM
- TGI [6]: > 100 µM
- TGI [34]: 26.6 µM
- TGI [35]: > 70.4 µM
- TGI [7]: > 100 µM
- TGI [36]: > 100 µM
- TGI [8]: > 100 µM
- TGI [9]: > 100 µM
- TGI [37]: > 52.4 µM
- TGI [38]: > 100 µM
- TGI [10]: > 100 µM
- TGI [11]: > 46.4 µM
- TGI [12]: > 59.3 µM
- TGI [39]: > 42.2 µM
- TGI [14]: > 38.7 µM
- TGI [40]: > 100 µM
- TGI [41]: > 80.7 µM
- TGI [42]: > 36.8 µM
- TGI [15]: > 100 µM
- TGI [16]: > 100 µM
- TGI [43]: > 40.5 µM
- TGI [44]: > 100 µM
- TGI [45]: > 100 µM
- TGI [46]: > 100 µM
- TGI [47]: > 34.7 µM
- TGI [48]: > 78.7 µM
- TGI [49]: > 100 µM
- TGI [50]: > 28.6 µM
- TGI [51]: > 50 µM
- TGI [52]: > 100 µM
- TGI [53]: > 100 µM
- TGI [19]: > 100 µM
- TGI [54]: 7.03 µM
- TGI [55]: > 100 µM
- TGI [56]: > 100 µM
- TGI [57]: 52.5 µM
- TGI [58]: > 100 µM
- TGI [20]: > 91.4 µM
- TGI [59]: 37 µM
- TGI [21]: > 100 µM
- TGI [60]: > 77.9 µM
- TGI [61]: > 100 µM
- TGI [62]: > 100 µM
- TGI [63]: > 67.7 µM
- TGI [64]: > 100 µM
